Earlier results in US10545077B2, “Solid phase microextraction coating” (JP SCIENTIFIC LIMITED, priority 2016, dated 2020).

For `CC(C)NCC(O)COc1ccc(COCCOC(C)C)cc1` (stereo not drawn) [Bisoprolol], the LogP is listed as 1.87.
In the case of `CCCC1O[C@@H]2C[C@H]3[C@@H]4CCC5=CC(=O)C=C[C@]5(C)[C@H]4[C@@H](O)C[C@]3(C)[C@]2(C(=O)CO)O1` (stereo partly drawn) [Budesonide], the LogP is listed as 2.42.
For `C[C@]12C=CC(=O)C=C1CC[C@@H]1[C@@H]2[C@@H](O)C[C@@]2(C)[C@H]1CC[C@]2(O)C(=O)CO` [Prednisolone], the LogP is listed as 1.66.
